Source: PMC13201543 (Communications Biology, 2026)
Entries after “also recorded” stand apart in the source; their conditions may differ.

Tests used:
A*33 = test: Surface plasmon resonance, immobilized A*33; format: binding, human; conditions: for SPR binding to A*33 (in words): Biacore T200, recombinant A*33
A*24 = test: Surface plasmon resonance, immobilized A*24; format: binding, human
C*07 = test: Surface plasmon resonance, immobilized C*07; format: binding, human; conditions: Biacore T200, recombinant C*07
[1] = target: recombinant C-terminal His-tag HLA-A*33 (human); test: SPR
[2] = target: recombinant His-tag HLA-C*07 (human); test: SPR
[3] = target: recombinant C-terminal His-tag HLA-A*24 (human); test: SPR

## SMFWPCLLR [SAG2C]
A*33
  SPR binding to A*33 (in words): higher binding affinity; also recorded: strong binding
A*24; Biacore T200, immobilized A*24, different concentrations of peptide
  SPR binding to A*24 (in words): relatively weaker binding
A*24; SAG2C 100 μM (Fig. 6C.iii)
  SPR binding response, A*24 compared with A*33: Distinct decrease in SPR binding response

## GNNQIDSTLKDLVEELSK [MSP3]
A*33
  SPR binding to A*33 (in words): relatively weaker binding
A*33; MSP3 100 μM (Fig. 8C.iii)
  SPR binding response, A*33 compared with C*07: Distinct decrease in SPR binding response
C*07
  binding to C*07 (in words): strong binding affinity

## GNNQIDSTLKDLVEELSK [Plasmodium antigenic peptide MSP3]
[1]
  SPR response at 200 uM: 12 RU
[2]
  SPR response at 200 uM: 60 RU

## SMFWPCLLR [Toxoplasma antigenic peptide SAG2C, wild type]
[3]
  SPR response at 200 uM: 15 RU
[1]
  SPR response at 200 uM: 150 RU
